Data: patent publication US6506768B2, “Tetrahydro γ-carbolines” (Janssen Pharmaceutica N.V., priority 1997, dated 2003)

What was measured:
human 5HT2A receptor = molecular target: T1, human 5HT2A receptor (Homo sapiens, UniProt P28223); assay: 5HT2A binding in L929sA cells (radioligand binding, 125I ligand); details: membranes of L929sA cells expressing human 5HT2A receptors; 0.1 nM 125I radioligand; pIC50 = −log IC50, IC50 in M
T1 construct: expressed in transfected cells; host or cells: L929sA cells (mouse fibro carcinoma cells), stably transfected, induced with m-interferon-b
Procedure: (§1) 5HT2 receptors were measured by radioligand binding studies either in homogenates from rat brains or in a membranes fraction prepared from L929sA cells (mouse fibro carcinoma cells), stably transfected with human 5HT2A receptor cDNA.
5HT2A Binding in L929sA Cells
L929sA cells expressing human 5HT2A receptors were cultured in Petri dishes in DMEM medium (Gibco cat.nr. 41965-039) enriched with 5% heat inactivated fetal calf serum and in the presence of penicillin and streptomycin sulphate. 24 h before collection, cells were induced with m-interferon-b (1000 U/ml medium). Cells were collected by scrapping and centrifugation at low speed (5 minutes at 1500 g). The cells were homogenized and centrifuged for 10 minutes at 23.000 g. The resulting pellet was diluted in Tris-HCl 50 mM pH 7.7 and stored at −70° C. On the day of the experiment, a vial was thawed and diluted in Tris-HCl buffer. 5HT2A receptors are labeled with 0.1 nM [^125I] 4-amino-N-[1-[3-(4-fluorophenoxy)propyl]-4-methyl-4-piperidinyl]-2-methoxybenzamide dihydrate. Membranes (0.2 ml) were incubated with the radioligand for 60 minutes at 37° C. in a total volume of 0.25 ml. The reaction was stopped by rapid filtration and the filter rounds were counted in an auto-gamma spectrophotometer.
(§2) Counting data from assays in the presence of test compound were automatically expressed as percent of total binding measured in the absence of test compound. Therefrom, the pIC50 (−log IC50)-values (IC50=concentration in M inhibiting 50% of the specific radioligand binding or neurotransmitter uptake) were derived and are listed in Table 9 (a “-” means “not measured”).

5HT2 receptors = molecular target: T2, 5HT2 receptors (Rattus norvegicus, UniProt P14842); assay: 5HT2 binding in rat frontal cortex (radioligand binding, [3H]ketanserin); details: rat frontal cortex membrane fraction; 1 nM [3H]ketanserin; pIC50 = −log IC50, IC50 in M
T2 construct: 5HT2 receptors were measured in a rat frontal cortex membrane fraction; from tissue; host or cells: Wistar rat frontal cortex membrane fraction
Procedure: as §1
5HT2 Binding in Rat Frontal Cortex
5HT2 receptors were measured in a rat frontal cortex membrane fraction. Herefore wistar rats were killed by decapitation, brains were removed and frontal cortex was dissected. The frontal cortex was homogenized in Tris-HCL buffer 50 mM pH7.7. The homogenate was centrifuged at 23.000 g for 10 minutes. The resulting pellet was washed twice by resuspension and recentrifugation and the pellet was finally suspended in Tris-HCL buffer 50 mM pH7.7 in a dilution of 100 (vol/wet weight of tissue). 400 μl of the homogenate was incubated with 1 nM [^3H]ketanserin in a total incubation volume of 0.5 ml for 30 minutes at 37° C. The incubation was stopped by rapid filtration using a manual filtration manifold. The filters were rinsed twice with ice-cold buffer and were counted in a liquid scintillation counter. Non-specific binding was determined in the presence of 1 μM methysergide.
as §2

T2 sequence (P14842 whole entry): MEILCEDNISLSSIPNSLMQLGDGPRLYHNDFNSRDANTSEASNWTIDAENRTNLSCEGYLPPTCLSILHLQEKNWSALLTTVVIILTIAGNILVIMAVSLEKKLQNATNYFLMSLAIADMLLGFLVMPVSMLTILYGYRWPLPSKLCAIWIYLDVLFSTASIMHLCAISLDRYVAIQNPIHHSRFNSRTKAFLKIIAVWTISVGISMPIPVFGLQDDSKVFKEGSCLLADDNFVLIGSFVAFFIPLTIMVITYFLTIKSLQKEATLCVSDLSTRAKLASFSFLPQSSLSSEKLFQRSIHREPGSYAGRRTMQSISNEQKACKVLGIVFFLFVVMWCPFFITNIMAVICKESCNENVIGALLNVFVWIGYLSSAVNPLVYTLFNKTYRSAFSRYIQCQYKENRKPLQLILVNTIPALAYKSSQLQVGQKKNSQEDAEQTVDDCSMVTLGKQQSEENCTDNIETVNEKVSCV
T1 sequence (P28223 whole entry): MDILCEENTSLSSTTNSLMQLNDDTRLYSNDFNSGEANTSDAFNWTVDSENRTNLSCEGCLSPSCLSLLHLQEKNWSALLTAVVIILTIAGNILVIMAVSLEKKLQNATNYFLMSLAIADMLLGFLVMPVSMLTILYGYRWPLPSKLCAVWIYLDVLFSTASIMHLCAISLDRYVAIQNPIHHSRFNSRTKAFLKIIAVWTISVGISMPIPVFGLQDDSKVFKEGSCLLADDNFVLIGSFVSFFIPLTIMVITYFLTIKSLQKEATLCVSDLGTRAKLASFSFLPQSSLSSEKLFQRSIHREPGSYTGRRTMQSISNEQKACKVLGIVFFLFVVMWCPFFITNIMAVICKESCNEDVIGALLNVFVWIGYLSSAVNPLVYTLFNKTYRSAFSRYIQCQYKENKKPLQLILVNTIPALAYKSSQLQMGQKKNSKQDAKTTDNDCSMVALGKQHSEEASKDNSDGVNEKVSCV

SMILES	IC50 (human 5HT2A receptor)	IC50 (5HT2 receptors)	5HT2A-binding (human 5HT2A receptor)
Cc1nc2ccccn2c(=O)c1CCN1CCc2[nH]c3ccc(F)cc3c2C1 [Compound 1]	13.2 nM	3.89 nM	–
Cc1nc2n(c(=O)c1CCN1CCc3[nH]c4ccc(F)cc4c3C1)CCCS2 [Compound 2, 7-[2-(8-fluoro-1,3,4,5-tetrahydro-2H-pyrido[4,3-b]indol-2-yl)ethyl]-3,4-dihydro-8-methyl-2H,6H-pyrimido[2,1-b][1,3]-thiazin-6-one]	–	36.3 nM	–
Cc1nc2n(c(=O)c1CCN1CCc3[nH]c4ccc(F)cc4c3C1)CCCC2 [Compound 4]	–	12.6 nM	–
Cc1nc2scc(C)n2c(=O)c1CCN1CCc2[nH]c3ccc(F)cc3c2C1 [Compound 5]	3.09 nM	–	–
Cc1nc2sccn2c(=O)c1CCN1CCc2[nH]c3ccc(F)cc3c2C1 [Compound 6]	6.46 nM	1 nM	–
Cc1nc2sccn2c(=O)c1CCN1CCc2[nH]c3cc(Cl)ccc3c2C1 [Compound 7]	22.9 nM	7.59 nM	–
Cc1nc2scc(C)n2c(=O)c1CCN1CCc2[nH]c3cc(Cl)ccc3c2C1 [Compound 8]	9.77 nM	4.27 nM	–
Cc1nc2ccccn2c(=O)c1CCN1CCc2[nH]c3cc(Cl)ccc3c2C1 [Compound 9]	57.5 nM	9.55 nM	–
Cc1nc2n(c(=O)c1CCN1CCc3[nH]c4cc(Cl)ccc4c3C1)CCCC2 [Compound 10]	457 nM	25.7 nM	–
Cc1nc2n(c(=O)c1CCN1CCc3[nH]c4cc(Cl)ccc4c3C1)CCCS2 [Compound 11]	575 nM	–	–
Cc1nc2n(c(=O)c1CCN1CCc3[nH]c4cc(Cl)ccc4c3C1)CCS2 [Compound 12]	617 nM	–	–
Cc1nc2c(C)cccn2c(=O)c1CCN1CCc2[nH]c3cc(Cl)ccc3c2C1 [Compound 13]	1480 nM	–	–
Cc1nc2ccc(Br)cn2c(=O)c1CCN1CCc2[nH]c3cc(Cl)ccc3c2C1 [Compound 14]	417 nM	–	–
Cc1nc2c(Cl)cc(C(F)(F)F)cn2c(=O)c1CCN1CCc2[nH]c3cc(Cl)ccc3c2C1 [Compound 15]	10000 nM	–	–
Cc1ccc2nc(C)c(CCN3CCc4[nH]c5cc(Cl)ccc5c4C3)c(=O)n2c1 [Compound 16]	126 nM	–	–
Cc1nc2ccc(Cl)cn2c(=O)c1CCN1CCc2[nH]c3cc(Cl)ccc3c2C1 [Compound 17]	251 nM	–	–
Cc1cc(C)n2c(=O)c(CCN3CCc4[nH]c5cc(Cl)ccc5c4C3)c(C)nc2c1.O=C(O)/C=C/C(=O)O [Compound 18]	–	–	5.6
COc1cccn2c(=O)c(CCN3CCc4[nH]c5cc(Cl)ccc5c4C3)c(C)nc12 [Compound 20, 3-[2-(7-chloro-1,3,4,5-tetrahydro-2H-pyrido[4,3-b]indol-2-yl)ethyl]-9-methoxy-2-4-H-pyrido[1,2-a]pyrimidin-4-one]	316 nM	–	–
Cc1ccn2c(=O)c(CCN3CCc4[nH]c5cc(Cl)ccc5c4C3)c(C)nc2c1 [Compound 22]	631 nM	–	–
Cc1nc2scc(C)n2c(=O)c1CCN1CCc2[nH]c3ccc(Cl)cc3c2C1 [Compound 23]	2.34 nM	1 nM	–
Cc1nc2n(c(=O)c1CCN1CCc3[nH]c4ccc(Cl)cc4c3C1)CCCS2 [Compound 24]	8.51 nM	1.95 nM	–
Cc1nc2sccn2c(=O)c1CCN1CCc2[nH]c3ccc(Cl)cc3c2C1 [Compound 25]	3.31 nM	–	–

SMILES	IC50 (human 5HT2A receptor)	IC50 (5HT2 receptors)	5HT2A-binding (human 5HT2A receptor)
Cc1nc2n(c(=O)c1CCN1CCc3[nH]c4ccc(Cl)cc4c3C1)CCS2 [Compound 26]	6.17 nM	–	–
Cc1nc2n(c(=O)c1CCN1CCc3[nH]c4ccc(Cl)cc4c3C1)CCCC2 [Compound 27]	–	2.82 nM	–
Cc1nc2ccccn2c(=O)c1CCN1CCc2[nH]c3ccc(Cl)cc3c2C1 [Compound 28]	7.59 nM	1.23 nM	–
Cc1ccc2[nH]c3c(c2c1)CN(CCc1c(C)nc2sccn2c1=O)CC3 [Compound 30]	8.32 nM	1.62 nM	–
Cc1ccc2[nH]c3c(c2c1)CN(CCc1c(C)nc2scc(C)n2c1=O)CC3 [Compound 32]	4.47 nM	0.398 nM	–
Cc1ccc2[nH]c3c(c2c1)CN(CCc1c(C)nc2n(c1=O)CCCS2)CC3 [Compound 33]	–	4.47 nM	–
Cc1ccc2[nH]c3c(c2c1)CN(CCc1c(C)nc2n(c1=O)CCCC2)CC3 [Compound 35]	–	3.72 nM	–
Cc1ccc2[nH]c3c(c2c1)CN(CCc1c(C)nc2n(c1=O)CCCC2)CC3 [Compound 36]	316 nM	–	–
Cc1nc2ccccn2c(=O)c1CCN1CCc2[nH]c3ccccc3c2C1 [Compound 37]	44.7 nM	3.24 nM	–
Cc1nc2sccn2c(=O)c1CCN1CCc2[nH]c3ccccc3c2C1 [Compound 38]	12.6 nM	8.13 nM	–
Cc1nc2scc(C)n2c(=O)c1CCN1CCc2[nH]c3ccccc3c2C1 [Compound 39]	5.01 nM	2.63 nM	–
Cc1nc2n(c(=O)c1CCN1CCc3[nH]c4ccccc4c3C1)CCS2 [Compound 41]	–	14.5 nM	–
COc1ccc2[nH]c3c(c2c1)CN(CCc1c(C)nc2n(c1=O)CCCC2)CC3 [Compound 52]	49 nM	28.8 nM	–
COc1ccc2[nH]c3c(c2c1)CN(CCc1c(C)nc2ccccn2c1=O)CC3 [Compound 53]	23.4 nM	17.8 nM	–
Cc1nc2n(c(=O)c1CCN1CCc3c(c4cc(F)ccc4n3-c3ccc(F)cc3)C1)CCS2 [Compound 67]	4.37 nM	1.82 nM	–
Cc1nc2scc(C)n2c(=O)c1CCN1CCc2c(c3cc(F)ccc3n2-c2ccc(F)cc2)C1 [Compound 68]	6.61 nM	–	–
Cc1nc2ccccn2c(=O)c1CCN1CCc2c(c3ccccc3n2Cc2ccccc2)C1 [Compound 69]	–	11.2 nM	–
Cc1nc2n(c(=O)c1CCN1CCc3c(c4ccccc4n3-c3ccccc3)C1)CCS2 [Compound 86]	4.57 nM	–	–
Cc1nc2n(c(=O)c1CCN1CCc3c(c4ccccc4n3-c3ccccc3)C1)CCCC2 [Compound 89]	6.92 nM	–	–
Cc1nc(N)n(C)c(=O)c1CCN1CCc2[nH]c3ccccc3c2C1 [Compound 100]	–	5.01 nM	–
Fc1ccc2[nH]c3c(c2c1)CN(CCCCNc1nc2ccccc2s1)CC3 [Compound 108, N-2-benzothiazolyl-8-fluoro-1,3,4,5,-tetrahydro-2H-pyrido[4,3-b]indole-2-butanamine]	–	550 nM	–
